Columns and labels:
KMS-12-BM cells = assay: ALAMAR BLUE cell viability assay; format: cell-based; conditions: viability at 48 h
Method in brief: (§1)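 Myeloma lines were grown in RPMI-1640 with 10% FBS; viability of myeloma cells was read by ALAMAR BLUE mitochondrial dye conversion. PBMNC viability used CELL TITER-GLO ATP luminescence. Caspase-3/7 activity in NCI-H929 and MM1.R was measured with the APO-ONE homogeneous assay.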

NCI-H929 cells = assay: ALAMAR BLUE cell viability assay; format: cell-based; conditions: NCI-H929, viability at 48 h
Method in brief: as §1

chymotrypsin-like sites = conditions: patients treated with carfilzomib; cited from earlier work
[1] = test system: T1, chymotrypsin-like sites (β5) of proteasome in MM cells; assay: PROTEASOMEGLO assay of proteasome inhibition in MM cells; format: cell-based; conditions: for Inhibition of chymotrypsin-like sites, 6 h −NC-022: washout
T1 construct: other: NCI-H929; bortezomib 100 nM 1 h; bortezomib 11 nM 1 h; bortezomib 3.7 nM 1 h; bortezomib 33 nM 1 h; other: NCI-H9

[2] = test system: chymotrypsin-like sites (β5) of proteasome in MM cells; assay: as above; format: cell-based; conditions: washout
[3] = molecular target: T2, trypsin-like sites (β2) of proteasome in MM cells (Homo sapiens, UniProt Q99436); assay: as above; format: cell-based; conditions: for Inhibition of trypsin-like sites, 6 h +NC-022 / Inhibition of trypsin-like sites, 6 h −NC-022: washout
T2 construct: endogenous in cells; host or cells: NCI-H929, RPMI-8226 and other MM cell lines
T2 sequence (Q99436 44-277): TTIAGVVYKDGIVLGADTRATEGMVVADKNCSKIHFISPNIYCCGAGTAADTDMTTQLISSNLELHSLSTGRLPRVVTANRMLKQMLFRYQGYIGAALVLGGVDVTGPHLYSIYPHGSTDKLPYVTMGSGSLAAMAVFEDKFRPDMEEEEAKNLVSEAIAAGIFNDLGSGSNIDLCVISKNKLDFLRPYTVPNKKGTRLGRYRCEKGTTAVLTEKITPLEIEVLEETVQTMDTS

β2 proteasome subunit = molecular target: T3, β2 proteasome subunit (Homo sapiens, UniProt P49720+Q99436); assay: Competition assay in HEK-293T cell lysate with MV151; format: biochemical; conditions: HEK293 extracts
T3 construct: Whole cell lysates of HEK-293T or EL-4 cells were made by sonication; endogenous in cells; host or cells: HEK-293T
Procedure: Protein concentration was determined by the Bradford assay.
Competitive inhibition of a proteasome active site is reflected by the disappearance of the corresponding band on a gel.

[4] = test system: trypsin-like sites (β2) of proteasome in MM cells; assay: PROTEASOMEGLO assay of proteasome inhibition in MM cells; format: cell-based
Cathepsin B, H, L, S = assay: Cathepsin activity with pan-cathepsin substrate Z-FR-amc; format: cell-based; conditions: NCI-H929 cells, 6 hour treatment
Procedure: Cathepsin B, H, L, S activity was measured with pan-cathepsin substrate Z-FR-amc (Kirschke & Wiederanders (1994) Methods Enzymol. 244:500-11) in extracts of cytosol-less cells at pH 6.0 (Screen, et al. (2010) supra). Cathepsin D activity was measured in cytosol-less extracts using SENSOLYTE 520 Cathepsin D Fluorometric Assay Kit (AnaSpec). Combined cathepsin D and E activity was measured using the same kit, in which cathepsin D substrate provided with the kit was replaced with 7-Methoxycoumarin-[…](Dnp)-X′-NH2 (SEQ ID NO:10; where “X′” stand for D-Arg) internally quenched fluorogenic substrate of cathepsin D and E. In this case, pH 3.0 assay buffer used for cell extraction. All activity observed using both procedures was inhibited by more than 98% by specific inhibitor of aspartic proteases pepstatin A.

[5] = molecular target: T4, chymotrypsin-like site of 26S proteasomes (Oryctolagus cuniculus, UniProt G1T4Q9); assay: Inhibition of purified 26S proteasomes, substrate Suc-LLVY-amc; format: biochemical, rabbit; conditions: >>30 no inhibition at 30 μM, >30 inhibition between 10 and 50% at 30 μM, read-out: IC50 for sites in 26S proteasomes: Chym-L
T4 sequence (G1T4Q9 1-263): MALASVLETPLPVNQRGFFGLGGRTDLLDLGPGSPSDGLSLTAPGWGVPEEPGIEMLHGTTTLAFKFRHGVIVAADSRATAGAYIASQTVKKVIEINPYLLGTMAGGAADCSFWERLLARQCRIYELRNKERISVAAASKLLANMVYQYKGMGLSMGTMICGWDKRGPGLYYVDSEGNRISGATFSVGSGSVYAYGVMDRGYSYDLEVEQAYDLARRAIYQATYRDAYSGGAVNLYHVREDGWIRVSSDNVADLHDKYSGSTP
Procedure: 26S proteasomes were purified from rabbit muscle using known methods (Screen, et al. (2010) supra). […] NOVEX Bis-Tris gels (12%, Invitrogen) with MOPS running buffer were used for electrophoretic separation of catalytic subunits modified by active-site probes. Inhibition of active sites inside cells was assayed using luminescent PROTEASOMEGLO assay (Promega; Moravec, et al. (2009) Anal. Biochem. 387:294-302) according to known methods (Britton, et al. (2009) supra).

[6] = molecular target: T5, trypsin-like site of 26S proteasomes (Oryctolagus cuniculus, UniProt G1SWK8); assay: Inhibition of purified 26S proteasomes, substrate Ac-RLR-amc; format: biochemical, rabbit; conditions: purified 26S proteasomes; >>30 no inhibition at 30 μM, >30 inhibition between 10 and 50% at 30 μM; read-out: IC50 for sites in 26S proteasomes: Tr-L
T5 construct: IC50 for sites in 26S proteasomes: Tr-L; other: purified 26S proteasomes; other: 26S proteasomes from rabbit muscles
T5 sequence (G1SWK8 1-271): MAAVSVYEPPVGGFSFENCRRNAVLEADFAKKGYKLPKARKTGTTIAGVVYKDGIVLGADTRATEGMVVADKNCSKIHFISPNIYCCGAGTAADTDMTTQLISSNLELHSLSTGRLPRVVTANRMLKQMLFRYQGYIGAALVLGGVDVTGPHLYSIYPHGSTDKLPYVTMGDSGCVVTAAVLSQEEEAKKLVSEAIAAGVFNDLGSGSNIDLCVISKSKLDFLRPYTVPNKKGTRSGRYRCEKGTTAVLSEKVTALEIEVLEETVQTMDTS

[7] = KMS-12-BM, carfilzomib 11 nM 1 h
[8] = KMS-12-BM, carfilzomib 33 nM 1 h
[9] = KMS-12-BM, carfilzomib 100 nM 1 h
[10] = KMS-12-BM, carfilzomib 300 nM 1 h
[11] = KMS-12-BM, carfilzomib 900 nM 1 h
[12] = NCI-H929, carfilzomib 3.7 nM 1 h
[13] = NCI-H929, carfilzomib 11 nM 1 h
[14] = NCI-H929, carfilzomib 33 nM 1 h

**Q.** Which results are given for `CC(C)C[C@H](NC(=O)[C@H](CCc1ccccc1)NC(=O)CN1CCOCC1)C(=O)N[C@@H](Cc1ccccc1)C(=O)N[C@@H](CC(C)C)C(=O)[C@@]1(C)CO1` [Carfilzomib]?
**A.** Viability +NC-022 (KMS-12-BM cells; carfilzomib 11 nM 1 h): 69 ± 2 % control; Viability −NC-022 (KMS-12-BM cells; carfilzomib 11 nM 1 h): 95 ± 3 % control; Viability +NC-022 (KMS-12-BM cells; carfilzomib 33 nM 1 h): 40 ± 3 % control; Viability −NC-022 (KMS-12-BM cells; carfilzomib 33 nM 1 h): 91 ± 3 % control; Viability +NC-022 (KMS-12-BM cells; carfilzomib 100 nM 1 h): 27 ± 5 % control; Viability −NC-022 (KMS-12-BM cells; carfilzomib 100 nM 1 h): 83.5 ± 3 % control; Viability +NC-022 (KMS-12-BM cells; carfilzomib 300 nM 1 h): 15 ± 1 % control; Viability −NC-022 (KMS-12-BM cells; carfilzomib 300 nM 1 h): 71 ± 2 % control; Viability +NC-022 (KMS-12-BM cells; carfilzomib 900 nM 1 h): 9 ± 1 % control; Viability −NC-022 (KMS-12-BM cells; carfilzomib 900 nM 1 h): 41 ± 7 % control; Viability +NC-022 (NCI-H929 cells; carfilzomib 3.7 nM 1 h): 36 ± 15 % control; Viability −NC-022 (NCI-H929 cells; carfilzomib 3.7 nM 1 h): 99 ± 9 % control; Viability +NC-022 (NCI-H929 cells; carfilzomib 11 nM 1 h): 14 ± 8 % control; Viability −NC-022 (NCI-H929 cells; carfilzomib 11 nM 1 h): 78 ± 15 % control; Viability +NC-022 (NCI-H929 cells; carfilzomib 33 nM 1 h): 4 ± 2 % control; Viability −NC-022 (NCI-H929 cells; carfilzomib 33 nM 1 h): 30 ± 11 % control; inhibition of the chymotrypsin-like sites in patients (chymotrypsin-like sites): ~90%; Inhibition of chymotrypsin-like sites, 1 h [1, 7]: 75 ± 6 % control; Inhibition of chymotrypsin-like sites, 6 h −NC-022 [1, 7]: 67 ± 17 % control; Inhibition of chymotrypsin-like sites, 1 h [1, 8]: 90 ± 3 % control; Inhibition of chymotrypsin-like sites, 6 h −NC-022 [1, 8]: 97 ± 1 % control; Inhibition of chymotrypsin-like sites, 1 h [1, 9]: 95 ± 3 % control; Inhibition of chymotrypsin-like sites, 6 h −NC-022 [1, 9]: 97 ± 1 % control; Inhibition of chymotrypsin-like sites, 1 h [1, 10]: 97 ± 3 % control; Inhibition of chymotrypsin-like sites, 6 h −NC-022 [1, 10]: 97 ± 1 % control; Inhibition of chymotrypsin-like sites, 1 h [1, 11]: 98 ± 3 % control; Inhibition of chymotrypsin-like sites, 6 h −NC-022 [1, 11]: 97 ± 0 % control; Inhibition of chymotrypsin-like sites, 1 h [1, 12]: 14 ± 43 % control; Inhibition of chymotrypsin-like sites, 6 h −NC-022 [1, 12]: 65.5 % control; Inhibition of chymotrypsin-like sites, 1 h [1, 13]: 39 ± 35 % control; Inhibition of chymotrypsin-like sites, 6 h −NC-022 [1, 13]: 89 ± 11 % control; Inhibition of chymotrypsin-like sites, 1 h [1, 14]: 75 ± 17 % control; Inhibition of chymotrypsin-like sites, 6 h −NC-022 [1, 14]: 95 ± 7 % control; Inhibition of chymotrypsin-like sites, 6 h +NC-022 [2, 7]: 63 ± 13 % control; Inhibition of chymotrypsin-like sites, 6 h +NC-022 [2, 8]: 84 ± 6 % control; Inhibition of chymotrypsin-like sites, 6 h +NC-022 [2, 9]: 90 ± 3 % control; Inhibition of chymotrypsin-like sites, 6 h +NC-022 [2, 10]: 95 ± 4 % control; Inhibition of chymotrypsin-like sites, 6 h +NC-022 [2, 11]: 99 ± 4 % control; Inhibition of chymotrypsin-like sites, 6 h +NC-022 [2, 12]: 41 ± 29 % control; Inhibition of chymotrypsin-like sites, 6 h +NC-022 [2, 13]: 52 ± 32 % control; Inhibition of chymotrypsin-like sites, 6 h +NC-022 [2, 14]: 71 ± 23 % control; Inhibition of trypsin-like sites, 1 h [3, 7]: −3 ± 10 % control; Inhibition of trypsin-like sites, 6 h +NC-022 [3, 7]: 91 ± 2 % control; Inhibition of trypsin-like sites, 6 h −NC-022 [3, 7]: 5 ± 25 % control; Inhibition of trypsin-like sites, 1 h [3, 8]: 0 ± 11 % control; Inhibition of trypsin-like sites, 6 h +NC-022 [3, 8]: 91 ± 2 % control; Inhibition of trypsin-like sites, 6 h −NC-022 [3, 8]: 45 ± 4 % control; Inhibition of trypsin-like sites, 1 h [3, 9]: 18 ± 8 % control; Inhibition of trypsin-like sites, 6 h +NC-022 [3, 9]: 94 ± 2 % control; Inhibition of trypsin-like sites, 6 h −NC-022 [3, 9]: 62 ± 2 % control; Inhibition of trypsin-like sites, 1 h [3, 10]: 49 ± 18 % control; Inhibition of trypsin-like sites, 6 h +NC-022 [3, 10]: 93 ± 2 % control; Inhibition of trypsin-like sites, 6 h −NC-022 [3, 10]: 69 ± 2 % control; Inhibition of trypsin-like sites, 1 h [3, 11]: 75 ± 14 % control; Inhibition of trypsin-like sites, 6 h +NC-022 [3, 11]: 94 ± 3 % control; Inhibition of trypsin-like sites, 6 h −NC-022 [3, 11]: 72 ± 2 % control; Inhibition of trypsin-like sites, 1 h [3, 12]: −7 ± 18 % control; Inhibition of trypsin-like sites, 6 h +NC-022 [3, 12]: 93 ± 3 % control; Inhibition of trypsin-like sites, 6 h −NC-022 [3, 12]: 3 % control; Inhibition of trypsin-like sites, 1 h [3, 13]: 0 ± 14 % control; Inhibition of trypsin-like sites, 6 h +NC-022 [3, 13]: 93 ± 2 % control; Inhibition of trypsin-like sites, 6 h −NC-022 [3, 13]: 39 ± 36 % control; Inhibition of trypsin-like sites, 1 h [3, 14]: 17 ± 8 % control; Inhibition of trypsin-like sites, 6 h +NC-022 [3, 14]: 94 ± 3 % control; Inhibition of trypsin-like sites, 6 h −NC-022 [3, 14]: 46 ± 24 % control

**Q.** With `CC(C)C[C@H](NC(=O)[C@H](Cc1ccc(CN)cc1)NC(=O)[C@H](Cc1ccccc1)N=[N+]=[N-])C(=O)N[C@H](/C=C/S(C)(=O)=O)Cc1ccc(CN)cc1` [Compound 52, N3-Phe-Phe (4-CH2NH2)-Leu-Phe (4-CH2NH2)-VS] as the compound, how does the “potency in extracts of human cells” value (β2 proteasome subunit) read?
**A.** most potent inhibitor in extracts

**Q.** What about the “difference in IC50 for trypsin-like activity between NCI-H929 and RPMI-8226” value [4] of the same compound?
**A.** 2.5 fold

**Q.** What about the “inhibition of cathepsins (Z-FR-amc)” value (Cathepsin B, H, L, S) of the same compound?
**A.** slightly more potent inhibitor of cathepsins

**Q.** What about the IC50 [5] of the same compound?
**A.** 3900 nM

**Q.** And the IC50 [6]?
**A.** 6.6 nM
